“And” between values parts separate entries of the source, which are not always exact repeats. Identical values can stand only once.
Test system: β-arrestin2 recruitment to B2R
Test: BRET recruitment of β-arrestin2 to B2R
Format: cell-based, human
Protocol: HEK293SL cells were seeded at a density of 7.5 × 10^5 cells per 100-mm dish and 24 h later, transiently transfected as such. For receptor internalization experiments, cells were transfected with 0.12 μg AT1R-RlucII, B2R-RlucII, or β2AR-RlucII and 0.48 μg of either rGFP-CAAX (to assess removal from the PM) or rGFP-FYVE (to assess accumulation in the endosomes). For β-arrestin recruitment assays, cells were transfected with 0.48 μg of receptor-YFP along with 0.12 μg of β-arrestin-RlucII. For β-arrestin/AP-2 binding experiments, cells were transfected with 1 μg Flag-AT1R, 1 μg β2-Adaptin-YFP, and 0.12 μg β-arrestin2-RlucII. For G protein activation, cells were transfected with 3 μg of sp-Flag-AT1R along with either 4.5 μg of the Gαq-polycistronic BRET sensor or 0.24 μg of the Gαi3-RlucII and 0.6 μg of GFP10-Gγ2 and Gβ1 sensors or 0.12 μg PKN-RBD-RlucII and 0.48 μg of rGFP-CAAX. For PKC activation, cells were transfected with 3 μg of sp-Flag-AT1R and 0.18 μg of the PKC sensor. For GTPase activation experiments, cells were transfected with 1 μg Flag-AT1R, 0.48 μg of rGFP-CAAX, and either 0.12 μg of GGA3-PBD-RlucII, PAK-CRIB-RlucII or Raf-RBD-RlucII. For biosensor validation experiments, cells were additionally transfected with 500 ng Flag-K-Ras-WT, Flag-K-Ras-G12V, Flag-K-Ras-SOS-CAAX, HA-ARF6-WT, HA-ARF6-T27N, Myc-Rac1-WT, Myc-Rac1-Q61L or Myc-Rac1-T17N. For PI3K/Akt activation experiments, cells were transfected with 0.48 μg of rGFP-CAAX and 0.12 μg of Akt (PH)-RlucII. After 18 h of transfection, the media was replaced and cells were divided for subsequent experiments. Cells were detached and seeded onto poly-L-ornithine-coated 96-well flat white bottom plates (BrandTech Scientific) at a density of 2.5 × 10^4 cells per well in media. The next day, cells were washed once with Tyrode’s buffer (140 mM NaCl, 2.7 mM KCl, 1 mM CaCl2, 12 mM NaHCO3, 5.6 mM D-glucose, 0.5 mM MgCl2, 0.37 mM NaH2PO4, 25 mM HEPES, pH 7.4) and left in Tyrode’s buffer. For kinetics of β-arrestin recruitment or β-arrestin binding to receptor and AP-2 experiments, cells were serum starved for 30 min, pretreated with 21 (50 µM) or Barbadin (100 µM) for 30 min, stimulated with 100 nM AngII or 1 µM BK and BRET signals were monitored at indicated times using a Victor X Light plate reader (PerkinElmer). Coelenterazine H (final concentration of 5 µM) was added 3–5 min prior to BRET measurements. Filter set was 460/80 nm and 535/30 nm for detecting the RlucII Renilla luciferase (donor) and YFP (acceptor) light emissions, respectively. The BRET ratio was determined by calculating the ratio of the light emitted by YFP over the light emitted by the RlucII. For G protein activation, cells were serum starved, pretreated with compounds for 30 min, stimulated with 100 nM AngII for 2 min (Gαq, Gαi3, and Rho sensors) or 5 min (PKC sensor). For the kinetics of GTPase and PI3K/Akt activation, cells were serum starved, pretreated with 21 (50 µM) or Wortmannin (200 nM) for 30 min, stimulated with ligand (100 nM AngII or 100 ng/ml EGF) and BRET signals were monitored at indicated times. For concentration-response curves, cells were serum-starved, pretreated with various concentrations of compounds for 30 min and stimulated with ligand (100 nM AngII, 1 µM BK, 10 µM Isoproterenol (Iso) or 100 ng/ml EGF) in Tyrode’s buffer for 30 min for receptor internalization, 10 min for ARF6, 2 min for Rac and Rho activation and 5 min for Ras activation and PI3K/Akt activation. BRET signals were monitored using a Synergy2 (BioTek) microplate reader and coelenterazine 400a (final concentrations of 5 µM) added 3–5 min prior to BRET measurements. Filter set was 410/80 nm and 515/30 nm for detecting the RlucII Renilla luciferase (donor) and rGFP/GFP10 (acceptor) light emissions, respectively. The BRET ratio was determined by calculating the ratio of the light emitted by rGFP/GFP10 over the light emitted by the RlucII.

## CC(C)C(=O)N1CCN(c2ccc(NC(=O)c3cc4ccccc4o3)cc2Cl)CC1 [Compound 21]
50 μM
  β-arrestin2 recruitment to B2R at the PM: did not preclude
Time 0 min
  BK-promoted BRET, Barr2: 0
Time 5 min, listed as Comp 21
  BK-promoted BRET, Barr2: 0.1301 and 0.1897 and 0.1572
Time 10 min, listed as Comp 21
  BK-promoted BRET, Barr2: 0.1662 and 0.2107 and 0.2145
Time 15 min, listed as Comp 21
  BK-promoted BRET, Barr2: 0.1989 and 0.1955 and 0.2222
Time 30 min, listed as Comp 21
  BK-promoted BRET, Barr2: 0.2065 and 0.1814 and 0.2273
Time 60 min, listed as Comp 21
  BK-promoted BRET, Barr2: 0.2055 and 0.169 and 0.2219

— article PMC8333425, “Discovery of a dual Ras and ARF6 inhibitor from a GPCR endocytosis screen” (Nature Communications, 2021)
